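The compound was tested at five concentrations on cells cultured in 96-well plates, with a 48-hour exposure period. GI50 is the concentration that inhibits growth by half. The concentration for full growth arrest is given as TGI.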
What was measured:
Test in all cases: DTP human tumour cell line panel, 48 h
RXF 393 renal = test system: RXF 393 renal
K-562 leukemia = test system: K-562 leukemia
MALME-3M melanoma = test system: MALME-3M melanoma
A498 renal = test system: A498 renal
OVCAR-5 ovarian = test system: OVCAR-5 ovarian
786-0 renal = test system: 786-0 renal
A549 NSCLC = test system: A549 NSCLC
UO-31 renal = test system: UO-31 renal
U251 CNS = test system: U251 CNS
HOP-92 NSCLC = test system: HOP-92 NSCLC
SF-539 CNS = test system: SF-539 CNS
ACHN renal = test system: ACHN renal
HCT-15 colon = test system: HCT-15 colon
OVCAR-4 ovarian = test system: OVCAR-4 ovarian
SK-MEL-5 melanoma = test system: SK-MEL-5 melanoma
HCT-116 colon = test system: HCT-116 colon

Row | Compound | TGI (RXF 393 renal) [µM] | TGI (K-562 leukemia) [µM] | TGI (MALME-3M melanoma) [µM] | TGI (A498 renal) [µM] | TGI (OVCAR-5 ovarian) [µM] | TGI (786-0 renal) [µM] | TGI (A549 NSCLC) [µM] | TGI (UO-31 renal) [µM] | TGI (U251 CNS) [µM] | TGI (HOP-92 NSCLC) [µM] | TGI (SF-539 CNS) [µM] | TGI (ACHN renal) [µM] | TGI (HCT-15 colon) [µM] | TGI (OVCAR-4 ovarian) [µM] | TGI (SK-MEL-5 melanoma) [µM] | TGI (HCT-116 colon) [µM] | GI50 (K-562 leukemia) [µM] | GI50 (MALME-3M melanoma) [µM] | GI50 (HOP-92 NSCLC) [µM] | GI50 (HCT-116 colon) [µM]
1 | O=c1cc(NNc2cccc(F)c2)[nH]c(=O)[nH]1 | 35.1 | 84.4 | 34.9 | > 100 | > 100 | 30.1 | > 100 | 95.8 | 31 | 30 | > 100 | > 100 | 30.9 | > 100 | > 100 | 31 | – | – | – | –
2 | CCOC(=O)c1c(Br)c(-c2ccc(OC)cc2)c(Br)n1C | 45 | 38.3 | 44.4 | 49.6 | > 100 | 73.4 | 82.3 | 89.2 | > 100 | 14.1 | 70.9 | > 100 | 64.2 | > 100 | 22.4 | 62.6 | 4.04 | 9.99 | 0.0721 | 16
3 | COc1cc2oc(=O)cc(C)c2cc1O | > 100 | > 100 | > 100 | > 100 | > 100 | > 100 | > 100 | > 100 | > 100 | > 100 | > 100 | > 100 | > 100 | > 100 | > 100 | > 100 | – | – | – | –
4 | COC(=O)CCc1ccc2c(c1)C(=O)CC2 | > 100 | > 100 | > 100 | > 100 | > 100 | > 100 | > 100 | > 100 | > 100 | > 100 | > 100 | > 100 | > 100 | > 100 | > 100 | > 100 | – | – | – | –
5 | CCO[C@@]1(COCc2ccccc2)OC(=O)C[C@@H]1N1C(=O)OC[C@@H]1c1ccccc1 | > 100 | > 100 | > 100 | > 100 | > 100 | > 100 | > 100 | > 100 | > 100 | > 100 | > 100 | > 100 | > 100 | > 100 | > 100 | > 100 | – | – | – | –
6 | C=C1c2nc3ccccc3n2C=C(c2ccc(C)cc2)N1c1ccc(C)cc1 | > 96.6 | > 100 | > 100 | > 100 | > 100 | > 100 | > 100 | > 100 | > 100 | > 100 | > 100 | > 100 | > 80.6 | > 100 | > 69.8 | > 100 | – | – | – | –
7 | CC1(C)O[C@@H](CCl)C[C@H](C#N)O1 | > 100 | > 100 | > 100 | > 100 | > 100 | > 100 | > 100 | > 100 | > 100 | > 100 | > 100 | > 100 | > 100 | > 100 | > 100 | > 100 | – | – | – | –
8 | O=c1c2c3c(sc2nc2n1N=C(c1ccc(Cl)cc1)CS2)CCCC3 | > 100 | > 100 | > 100 | > 100 | > 100 | > 100 | > 100 | > 100 | > 100 | > 100 | > 100 | > 100 | > 100 | > 100 | > 100 | > 100 | – | – | – | –
9 | COP(=O)(OC)C(NC(=O)C(F)(F)F)(c1ccccc1)C(F)(F)F (stereo not drawn) | > 100 | > 100 | > 100 | > 100 | > 100 | > 100 | > 100 | > 100 | > 100 | > 100 | > 100 | > 100 | > 100 | > 100 | > 100 | > 100 | – | – | – | –

Reference: PubChem BioAssay (NCI)
